# Assay results reported in PubChem BioAssay (NCI).
#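 Method: 48-hour compound exposure of cells in 96-well plates, five concentrations, linear interpolation of endpoints. GI50 = concentration required for 50% inhibition of growth. TGI denotes the concentration required for complete inhibition of growth.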
# What was measured:
# Experiment in all cases: NCI anticancer screen, dose series, 48 h
# [1] = test system: RXF 393 renal
# [2] = test system: CCRF-CEM leukemia
# [3] = test system: OVCAR-8 ovarian
# [4] = test system: NCI-H23 lung
# [5] = test system: HCT-116 colon
# [6] = test system: BT-549 breast
# [7] = test system: NCI-H460 lung
# [8] = test system: SF-539 CNS
# [9] = test system: U251 CNS
# [10] = test system: PC-3 prostate
# [11] = test system: EKVX NSCLC
# [12] = test system: UACC-62 melanoma
# [13] = test system: ACHN renal
# [14] = test system: HL-60(TB) leukemia
# [15] = test system: DU-145 prostate
# [16] = test system: CAKI-1 renal
# [17] = test system: OVCAR-3 ovarian
# [18] = test system: UACC-257 melanoma
# [19] = test system: HCC-2998 colon
# [20] = test system: NCI-H226 lung
# [21] = test system: HOP-62 NSCLC
# [22] = test system: SF-268 CNS
# [23] = test system: TK-10 renal
# [24] = test system: RPMI-8226 leukemia
# [25] = test system: MDA-MB-231 breast
# [26] = test system: SW-620 colon
# [27] = test system: IGROV1 ovarian
# [28] = test system: HT29 colon
# [29] = test system: SNB-19 CNS
# [30] = test system: A498 renal
# [31] = test system: HS 578T breast
# [32] = test system: MCF7 breast
# [33] = test system: SF-295 CNS
# [34] = test system: KM12 colon
# [35] = test system: 786-0 renal
# [36] = test system: NCI/ADR-RES ovarian
# [37] = test system: HCT-15 colon
# [38] = test system: UO-31 renal
# [39] = test system: M14 melanoma
# [40] = test system: OVCAR-5 ovarian
# [41] = test system: COLO 205 colon
# [42] = test system: SK-MEL-5 melanoma
# [43] = test system: HOP-92 NSCLC
# [44] = test system: K-562 leukemia
# [45] = test system: A549 NSCLC
# [46] = test system: SK-MEL-2 melanoma
# [47] = test system: T-47D breast
# [48] = test system: SK-OV-3 ovarian
# [49] = test system: LOX IMVI melanoma
# [50] = test system: MDA-MB-435
# [51] = test system: SN12C renal
# [52] = test system: MALME-3M melanoma
# [53] = test system: SK-MEL-28 melanoma
# [54] = test system: NCI-H522 lung
structure (smiles),measurement,setting,value
Cc1cc(C2CC(O)C(CO)O2)c(Cl)cc1Cl (stereo not drawn),GI50,[1],> 100 µM
same,TGI,[1],> 100 µM
same,GI50,[2],> 100 µM
same,TGI,[2],> 100 µM
same,GI50,[3],> 100 µM
same,TGI,[3],> 100 µM
same,GI50,[4],> 100 µM
same,TGI,[4],> 100 µM
same,GI50,[5],> 100 µM
same,TGI,[5],> 100 µM
same,GI50,[6],> 100 µM
same,TGI,[6],> 100 µM
same,GI50,[7],> 100 µM
same,TGI,[7],> 100 µM
same,GI50,[8],> 100 µM
same,TGI,[8],> 100 µM
same,GI50,[9],> 100 µM
same,TGI,[9],> 100 µM
same,GI50,[10],77.8 µM
same,TGI,[10],> 100 µM
same,GI50,[11],98.4 µM
same,TGI,[11],> 100 µM
same,GI50,[12],39.9 µM
same,TGI,[12],> 100 µM
same,GI50,[13],> 100 µM
same,TGI,[13],> 100 µM
same,GI50,[14],> 100 µM
same,TGI,[14],> 100 µM
same,GI50,[15],> 100 µM
same,TGI,[15],> 100 µM
same,GI50,[16],> 100 µM
same,TGI,[16],> 100 µM
same,GI50,[17],> 100 µM
same,TGI,[17],> 100 µM
same,GI50,[18],> 100 µM
same,TGI,[18],> 100 µM
same,GI50,[19],> 100 µM
same,TGI,[19],> 100 µM
same,GI50,[20],56.4 µM
same,TGI,[20],> 100 µM
same,GI50,[21],> 100 µM
same,TGI,[21],> 100 µM
same,GI50,[22],> 100 µM
same,TGI,[22],> 100 µM
same,GI50,[23],> 100 µM
same,TGI,[23],> 100 µM
same,GI50,[24],70.4 µM
same,TGI,[24],> 100 µM
same,GI50,[25],69.5 µM
same,TGI,[25],> 100 µM
same,GI50,[26],> 100 µM
same,TGI,[26],> 100 µM
same,GI50,[27],46.3 µM
same,TGI,[27],> 100 µM
same,GI50,[28],> 100 µM
same,TGI,[28],> 100 µM
same,GI50,[29],> 100 µM
same,TGI,[29],> 100 µM
same,GI50,[30],58.2 µM
same,TGI,[30],> 100 µM
same,GI50,[31],84.8 µM
same,TGI,[31],> 100 µM
same,GI50,[32],> 100 µM
same,TGI,[32],> 100 µM
same,GI50,[33],> 100 µM
same,TGI,[33],> 100 µM
same,GI50,[34],> 100 µM
same,TGI,[34],> 100 µM
same,GI50,[35],> 100 µM
same,TGI,[35],> 100 µM
same,GI50,[36],> 100 µM
same,TGI,[36],> 100 µM
same,GI50,[37],> 100 µM
same,TGI,[37],> 100 µM
same,GI50,[38],> 100 µM
same,TGI,[38],> 100 µM
same,GI50,[39],> 100 µM
same,TGI,[39],> 100 µM
same,GI50,[40],> 100 µM
same,TGI,[40],> 100 µM
same,GI50,[41],> 100 µM
same,TGI,[41],> 100 µM
same,GI50,[42],> 100 µM
same,TGI,[42],> 100 µM
same,GI50,[43],89.4 µM
same,TGI,[43],> 100 µM
same,GI50,[44],> 100 µM
same,TGI,[44],> 100 µM
same,GI50,[45],> 100 µM
same,TGI,[45],> 100 µM
same,GI50,[46],> 100 µM
same,TGI,[46],> 100 µM
same,GI50,[47],> 100 µM
same,TGI,[47],> 100 µM
same,GI50,[48],> 100 µM
same,TGI,[48],> 100 µM
same,GI50,[49],84.3 µM
same,TGI,[49],> 100 µM
same,GI50,[50],> 100 µM
same,TGI,[50],> 100 µM
same,GI50,[51],> 100 µM
same,TGI,[51],> 100 µM
same,GI50,[52],> 100 µM
same,TGI,[52],> 100 µM
same,GI50,[53],> 100 µM
same,TGI,[53],> 100 µM
same,GI50,[54],> 100 µM
same,TGI,[54],> 100 µM
